According to the supplement of paper PMC10307832:

What was measured:
Assay in all cases: relative viability (nuclei count vs DMSO), 5 days (fraction); higher = more cells survive
BX 795 + Bortezomib = compound: O=C(NCCCNc1nc(Nc2cccc(NC(=O)N3CCCC3)c2)ncc1I)c1cccs1 [BX 795] + CC(C)C[C@H](NC(=O)[C@H](Cc1ccccc1)NC(=O)c1cnccn1)B(O)O [Bortezomib] (partner 0.002 µM)
In short: (§1)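 After 5 days of treatment, lung cancer cells in 1536-well plates were fixed and stained in a single step (final 0.05% Triton X-100, 1% formaldehyde, 1 ug/ml Hoechst) and their nuclei counted on 4× images. Treatment had been applied by pin tool the day after seeding as one drug alone or as a fixed anchor-drug dose with five library-drug doses (not always all listed) in √10 steps. Relative viability is the nuclei count of treated wells divided by that of vehicle wells, and values are medians of duplicate plates.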

BX 795 + Navitoclax = compound: O=C(NCCCNc1nc(Nc2cccc(NC(=O)N3CCCC3)c2)ncc1I)c1cccs1 [BX 795] + CC1(C)CCC(c2ccc(Cl)cc2)=C(CN2CCN(c3ccc(C(=O)NS(=O)(=O)c4ccc(N[C@H](CCN5CCOCC5)CSc5ccccc5)c(S(=O)(=O)C(F)(F)F)c4)cc3)CC2)C1 [Navitoclax] (partner 0.5 µM)
In short: as §1

BX 795 + Pictilisib = compound: O=C(NCCCNc1nc(Nc2cccc(NC(=O)N3CCCC3)c2)ncc1I)c1cccs1 [BX 795] + CS(=O)(=O)N1CCN(Cc2cc3nc(-c4cccc5[nH]ncc45)nc(N4CCOCC4)c3s2)CC1 [Pictilisib] (partner 1 µM)
In short: as §1

BX 795 + Crizotinib = compound: O=C(NCCCNc1nc(Nc2cccc(NC(=O)N3CCCC3)c2)ncc1I)c1cccs1 [BX 795] + C[C@@H](Oc1cc(-c2cnn(C3CCNCC3)c2)cnc1N)c1c(Cl)ccc(F)c1Cl [Crizotinib] (partner 1 µM)
In short: as §1

BX 795 + Decitabine = compound: O=C(NCCCNc1nc(Nc2cccc(NC(=O)N3CCCC3)c2)ncc1I)c1cccs1 [BX 795] + Nc1ncn([C@H]2C[C@H](O)[C@@H](CO)O2)c(=O)n1 [Decitabine] (partner 2 µM)
In short: as §1

| Cell Line | relative viability (BX 795 + Bortezomib; first compound 0.04 µM) | relative viability (BX 795 + Bortezomib; first compound 0.1265 µM) | relative viability (BX 795 + Bortezomib; first compound 0.4 µM) | relative viability (BX 795 + Bortezomib; first compound 1.265 µM) | relative viability (BX 795 + Navitoclax; first compound 0.04 µM) | relative viability (BX 795 + Navitoclax; first compound 0.1265 µM) | relative viability (BX 795 + Navitoclax; first compound 0.4 µM) | relative viability (BX 795 + Navitoclax; first compound 1.265 µM) | relative viability (BX 795 + Pictilisib; first compound 0.04 µM) | relative viability (BX 795 + Pictilisib; first compound 0.1265 µM) | relative viability (BX 795 + Pictilisib; first compound 0.4 µM) | relative viability (BX 795 + Pictilisib; first compound 1.265 µM) | relative viability (BX 795 + Crizotinib; first compound 0.04 µM) | relative viability (BX 795 + Crizotinib; first compound 0.1265 µM) | relative viability (BX 795 + Crizotinib; first compound 0.4 µM) | relative viability (BX 795 + Crizotinib; first compound 1.265 µM) | relative viability (BX 795 + Decitabine; first compound 0.04 µM) | relative viability (BX 795 + Decitabine; first compound 0.1265 µM) | relative viability (BX 795 + Decitabine; first compound 0.4 µM) | relative viability (BX 795 + Decitabine; first compound 1.265 µM) |
| --- | --- | --- | --- | --- | --- | --- | --- | --- | --- | --- | --- | --- | --- | --- | --- | --- | --- | --- | --- | --- |
| NCI-H1666 | 0.653 | 0.806 | 0.913 | 0.688 | 1.12 | 1.31 | 1.14 | 0.717 | 0.364 | 0.516 | 0.449 | 0.273 | 1.16 | 1.05 | 1.13 | 0.769 | 0.925 | 0.69 | 0.785 | 0.686 |
| H3255 | 0.731 | 0.816 | 1.11 | 0.66 | 0.663 | 0.484 | 0.694 | 0.527 | 0.533 | 0.475 | 0.498 | 0.428 | 0.903 | 0.831 | 0.852 | 0.644 | 0.647 | 0.819 | 0.664 | 0.616 |
| COR-L 105 | 0.586 | 0.577 | 0.613 | 0.327 | 0.795 | 0.583 | 0.652 | 0.39 | 0.376 | 0.381 | 0.359 | 0.328 | 0.789 | 0.588 | 0.56 | 0.279 | 0.636 | 0.589 | 0.507 | 0.603 |
| NCI-H1355 | 1.23 | 1.22 | 1.31 | 1.22 | 0.974 | 0.937 | 1.09 | 0.626 | 0.451 | 0.423 | 0.436 | 0.424 | 1.03 | 0.937 | 1.1 | 0.961 | 0.355 | 0.278 | 0.449 | 0.337 |
| LK-2 | – | – | – | – | 0.873 | 0.876 | 0.787 | 0.608 | 0.622 | 0.556 | 0.47 | 0.557 | 0.238 | 0.171 | 0.21 | 0.193 | 0.447 | 0.266 | 0.294 | 0.271 |
| NCI-H522 | – | – | – | – | – | – | – | – | – | – | – | – | – | – | – | – | 0.556 | 0.657 | 0.73 | 0.71 |
| NCI-H1395 | – | – | – | – | 1.23 | 1.06 | 0.531 | 0.837 | 0.673 | 0.562 | 0.461 | 0.533 | – | – | – | – | 0.693 | 0.774 | 0.48 | 0.597 |
| NCI-H661 | 0.767 | 0.806 | 0.695 | 0.706 | – | – | – | – | 0.461 | 0.484 | 0.39 | 0.441 | 1.06 | 1.02 | 1.12 | 0.865 | 0.683 | 0.594 | 0.589 | 0.533 |
| SW 900 | – | – | – | – | – | – | – | – | – | – | – | – | – | – | – | – | 0.543 | – | 0.622 | 0.485 |
